ChEMBL document CHEMBL3045029, “Synthesis and antimicrobial activities of some isoxazolyl thiazolyl pyrazoles” (2012)

Tests used:
Assay type in all cases: functional
[1] = test system: Bacillus subtilis; assay: Antibacterial activity against Bacillus subtilis MTCC 441 after 24 hr by serial dilution method
[2] = test system: Aspergillus niger; assay: Antifungal activity against Aspergillus niger MTCC 282 after 120 hr by serial dilution method
[3] = test system: Candida albicans; assay: Antifungal activity against Candida albicans MTCC 183 after 48 hr by serial dilution method
[4] = test system: Staphylococcus aureus; assay: Antibacterial activity against Staphylococcus aureus MTCC 7443 after 24 hr by serial dilution method
[5] = test system: Escherichia coli; assay: Antibacterial activity against Escherichia coli MTCC 42 after 24 hr by serial dilution method

Row | Compound | -logMIC [1] | -logMIC [2] | -logMIC [3] | -logMIC [4] | -logMIC [5]
1 | COc1ccc(-c2csc(-n3[nH]c(C)c(-c4cc(C)no4)c3=O)n2)cc1 | 1.771 | 1.771 | 1.47 | 1.771 | 1.47
2 | C/C(=N\Nc1nc(-c2ccc(Cl)cc2)cs1)c1c(O)cc(C)oc1=O | 1.478 | 1.478 | 1.478 | 1.478 | 1.478
3 | Cc1ccc(-c2csc(-n3[nH]c(C)c(-c4cc(C)no4)c3=O)n2)cc1 | 1.75 | 1.75 | 1.449 | 1.75 | 1.75
4 | CCn1cc(C(=O)O)c(=O)c2cc(F)c(N3CCNCC3)cc21 [NORFLOXACIN] | 2.698 |  |  | 2.698 | 2.698
5 | Cc1cc(-c2c(C)[nH]n(-c3nc(-c4ccc(Cl)cc4)cs3)c2=O)on1 | 1.775 | 1.474 | 1.477 | 2.077 | 1.775
6 | Cc1cc(-c2c(C)[nH]n(-c3nc(-c4ccccc4)cs3)c2=O)on1 | 1.733 | 1.432 | 1.432 | 1.733 | 1.733
7 | C/C(=N\Nc1nc(-c2ccccc2)cs1)c1c(O)cc(C)oc1=O | 1.435 | 1.435 | 1.435 | 1.737 | 1.435
8 | COc1ccc(-c2csc(N/N=C(\C)c3c(O)cc(C)oc3=O)n2)cc1 | 1.171 | 1.472 | 1.171 | 1.472 | 1.472
9 | OC(Cn1cncn1)(Cn1cncn1)c1ccc(F)cc1F [FLUCONAZOLE] |  | 3 | 3 |  | 
10 | CC(=O)CC(=O)c1c(C)[nH]n(-c2nc(-c3ccccc3)cs2)c1=O | 1.435 | 1.435 | 1.435 | 1.435 | 1.435
11 | C/C(=N\Nc1nc(-c2ccc(C)cc2)cs1)c1c(O)cc(C)oc1=O | 1.453 | 1.435 | 1.152 | 1.453 | 1.453
